From patent publication US10472341B2, “Bicyclic tetrahydrothiazepine derivatives useful for the treatment of neoplastic and/or infectious diseases” (APEIRON BIOLOGICS AG, priority 2015, dated 2019)
Like-named read-outs stand apart in the source and are kept apart here.

Assays:
[1] = system: CD4 T cells, CD8 T cells and NK cells of B16-F10-OVA tumor bearing mice; test: Immune modulation of B16-F10-OVA tumor bearing mice: activation markers in tumor draining lymph nodes (flow cytometry); format: in vivo, mouse; details: day 15
Description: (§1) • Single cell suspension of splenocytes was prepared from the spleen by rinsing cells through a sterile 70 μm filter with PBS • Cells were collected by centrifugation in an 15 ml tube, the cell pellet was resuspended in 1 ml of Erylyse buffer and incubated at room temperature for 5 minutes, tubes were filled up with PBS and cells were washed twice • Cells were counted and resuspended in the desired buffer volume for MACS-enrichment or flow cytometric analysis Isolation of CD4 T Cells from OT-II Transgenic Mice • Splenocytes were resuspended in MACS buffer ([…] MACS-buffer/10^7 cells) • CD4 T cells were isolated using the CD4 T cell isolation kit (Miltenyi) with LS-columns following manufacturer's recommendations CFSE-Labeling of T Cells • Cells were resuspended in PBS with 0.1% BSA at 1×10^7 cells/ml and CFSE-solution was added to final concentration of 2.5 μM CFSE • Incubated for 10 min at 37° C., swung each 2 min • Same volume of FCS added and incubated for 5 min at room temperature • Cells were washed twice with RMPI-10% FCS medium • Cells were counted and resuspended in PBS or medium at desired concentration OT-II Transfer • Day 0: OT-II cells were transferred in PBS (3*10^6. Cells in 100 μl PBS) by retro-orbital injection • Day 1: WT mice got OVA vaccinated (subcut. flank, 10 μg LPS, 2 μg OVA per animal) • 2 & 4 h later compounds were administrated; for oral dosing compound was used as suspension (0.5% methylcellulose in water), for i.v. dosing compound was solubilized in DMSO and diluted with PBS • Day 2: compounds were administrated twice in the morning (with 2 h time interval) • Day 3: Mice were sacrificed & splenocytes were isolated • T cell proliferation & phenotype was determined by flow cytometry • Flow cytometry-Staining (all Abs purchased from eBioscience and used as recommended by the manufacturer): B220-eF450, CD4-PE, CD25PerCPCy5.5, CD69-PC7, TCRVa2-APC, CD8-AF700, CD3-eF780; CFSE; 7-AAD • Acquisition on Beckman-Coulter Gallios, Analysis using Kaluza Software OT-I Transfer to Mice with B16-F10-OVA Tumors • Day 0: 100000 B16-F10-OVA tumor cells were inoculated subcutaneously at the flank of WT-mice • Day 7: OT-I cells were transferred in PBS (3*10^6. […]

B16-F10-OVA tumors = test: Immune modulation of B16-F10-OVA tumor bearing mice: tumor infiltration by immune cells (quantitative RT-PCR); format: in vivo, mouse; details: tumor mRNA
Description: as §1

[2] = system: aCD3/aCD28-stimulated human PBMCs; test: Cytokine production in aCD3/aCD28 stimulated human PBMCs; format: cell-based; details: PBMC, 18 h
In short: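 Compound effects measured in buffy-coat PBMCs activated 18 h at 37° C by 1 μg/mL each of soluble anti-CD3 (OKT3) and anti-CD28 (28.2), 1e6 cells/mL. Cytokines in harvested supernatants read by MSD or HTRF.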

non-stimulated PBMCs = test: Non-stimulated PBMCs: cytokine secretion and signs of T-cell activation; format: cell-based, human
Source text: This is an important finding for compounds that shall selectively act on T cells which have been activated by presence of antigen from pathogens or tumors, but shall not lead to an unwanted general activation of all T cells of a patient.

OT-II cells = test: OT-II transfer model, oral administration: antigen-specific T cell proliferation and CD69; format: in vivo, mouse; details: LPS & OVA; 10 mg/kg dosed orally
Description: as §1

N[C@H]1CS(=O)(=O)c2cc(F)c(C(=O)NC3CC3(F)F)cc2N(Cc2ccc(Cl)cc2)C1=O (stereo partly shown) [Compound Ex. 1]
Average CD25+ cells ([1]; CD4 T cells, 10 mg/kg orally): 15.63 % gated | Average CD69+ cells ([1]; CD4 T cells, 10 mg/kg orally): 13.34 % gated | Average CD107a+ cells ([1]; CD4 T cells, 10 mg/kg orally): 5.03 % gated | Average PD1+ cells ([1]; CD4 T cells, 10 mg/kg orally): 10.73 % gated | Average CD25+ cells ([1]; CD4 T cells, 30 mg/kg orally): 15.91 % gated | Average CD69+ cells ([1]; CD4 T cells, 30 mg/kg orally): 14.25 % gated | Average CD107a+ cells ([1]; CD4 T cells, 30 mg/kg orally): 5.43 % gated | Average PD1+ cells ([1]; CD4 T cells, 30 mg/kg orally): 10.36 % gated | Average CD25+ cells ([1]; CD8 T cells, 10 mg/kg orally): 1.95 % gated | Average CD69+ cells ([1]; CD8 T cells, 10 mg/kg orally): 5.25 % gated | Average CD107a+ cells ([1]; CD8 T cells, 10 mg/kg orally): 2.00 % gated | Average PD1+ cells ([1]; CD8 T cells, 10 mg/kg orally): 3.12 % gated | Average CD25+ cells ([1]; CD8 T cells, 30 mg/kg orally): 2.88 % gated | Average CD69+ cells ([1]; CD8 T cells, 30 mg/kg orally): 5.91 % gated | Average CD107a+ cells ([1]; CD8 T cells, 30 mg/kg orally): 4.24 % gated | Average PD1+ cells ([1]; CD8 T cells, 30 mg/kg orally): 6.71 % gated | Average CD69+ cells ([1]; NK cells, 10 mg/kg orally): 34.43 % gated | Average CD107a+ cells ([1]; NK cells, 10 mg/kg orally): 12.85 % gated | Average PD1+ cells ([1]; NK cells, 10 mg/kg orally): 19.91 % gated | Average CD69+ cells ([1]; NK cells, 30 mg/kg orally): 32.55 % gated | Average CD107a+ cells ([1]; NK cells, 30 mg/kg orally): 10.98 % gated | Average PD1+ cells ([1]; NK cells, 30 mg/kg orally): 13.61 % gated | Average CD4 expression (B16-F10-OVA tumors; 10 mg/kg orally): 7.07 EF1a * 10^4 | Average CD8 expression (B16-F10-OVA tumors; 10 mg/kg orally): 6.28 EF1a * 10^4 | Average IFN-g expression (B16-F10-OVA tumors; 10 mg/kg orally): 0.75 EF1a * 10^4 | Average IL-2 expression (B16-F10-OVA tumors; 10 mg/kg orally): 0.043 EF1a * 10^4 | Average IL-12 expression (B16-F10-OVA tumors; 10 mg/kg orally): 0.074 EF1a * 10^4 | Average IL-23 expression (B16-F10-OVA tumors; 10 mg/kg orally): 0.480 EF1a * 10^4 | Average Ratio Eomes/Foxp3 (B16-F10-OVA tumors; 10 mg/kg orally): 0.66 | Average Ratio Rorgc/Foxp3 (B16-F10-OVA tumors; 10 mg/kg orally): 5.38 | Average Ratio T-bet/Foxp3 (B16-F10-OVA tumors; 10 mg/kg orally): 8.35 | Average TNF-a expression (B16-F10-OVA tumors; 10 mg/kg orally): 9.96 EF1a * 10^4 | Average CD4 expression (B16-F10-OVA tumors; 30 mg/kg orally): 9.65 EF1a * 10^4 | Average CD8 expression (B16-F10-OVA tumors; 30 mg/kg orally): 10.72 EF1a * 10^4 | Average IFN-g expression (B16-F10-OVA tumors; 30 mg/kg orally): 1.23 EF1a * 10^4 | Average IL-2 expression (B16-F10-OVA tumors; 30 mg/kg orally): 0.085 EF1a * 10^4 | Average IL-12 expression (B16-F10-OVA tumors; 30 mg/kg orally): 0.120 EF1a * 10^4 | Average IL-23 expression (B16-F10-OVA tumors; 30 mg/kg orally): 0.611 EF1a * 10^4 | Average Ratio Eomes/Foxp3 (B16-F10-OVA tumors; 30 mg/kg orally): 0.64 | Average Ratio Rorgc/Foxp3 (B16-F10-OVA tumors; 30 mg/kg orally): 6.17 | Average Ratio T-bet/Foxp3 (B16-F10-OVA tumors; 30 mg/kg orally): 9.59 | Average TNF-a expression (B16-F10-OVA tumors; 30 mg/kg orally): 14.97 EF1a * 10^4

CC(=O)NCCCCCOc1ccc(CNC(=O)c2ccc3c(c2)N(Cc2ccc(Cl)cc2)C(=O)[C@@H](N)CS3(=O)=O)cc1.Cl [Example 78, (3R)-3-amino-5-[(4-chlorophenyl)methyl]-N-({4-[(5-acetamidopentyl)oxy]phenyl}-methyl)-1,1,4-trioxo-2,3,4,5-tetrahydro-1λ^6,5-benzothiazepine-7-carboxamide hydrochloride]
EC50 ([2]; enhancement of IFN-γ production, read-out: Activity Class IFN-γ): < 1.58 µM | EC50 ([2]; enhancement of IL-2 production, read-out: Activity Class IL-2): < 1.58 µM | cytokine secretion or other signs of T-cell activation (non-stimulated PBMCs): did not enhance cytokine secretion or other signs of T-cell activation

N[C@H]1CS(=O)(=O)c2cc(F)c(C(=O)NC3CC3(F)F)cc2N(Cc2ccc(Cl)cc2)C1=O (stereo partly shown) [compound ex. 1]
CD69+ cells, B cells of recipient animal (OT-II cells): 2.10 % gated | CD69+ cells, CD8 T cells of recipient animal (OT-II cells): 3.48 % gated | CD69+ cells, WT CD4 T cells of recipient animal (OT-II cells): 7.00 % gated | CD69+ cells, transferred OT-II cells (OT-II cells): 46.92 % gated
